Tests used:
Format in all cases: binding
Settings in all cases: Compound Concentration 10 µM
[1] = target: T1, panel of 442 kinases (Homo sapiens, UniProt P36888, K663Q)
T1 construct: purchased KINOMEscan
T1 sequence (P36888 27-993 K663Q): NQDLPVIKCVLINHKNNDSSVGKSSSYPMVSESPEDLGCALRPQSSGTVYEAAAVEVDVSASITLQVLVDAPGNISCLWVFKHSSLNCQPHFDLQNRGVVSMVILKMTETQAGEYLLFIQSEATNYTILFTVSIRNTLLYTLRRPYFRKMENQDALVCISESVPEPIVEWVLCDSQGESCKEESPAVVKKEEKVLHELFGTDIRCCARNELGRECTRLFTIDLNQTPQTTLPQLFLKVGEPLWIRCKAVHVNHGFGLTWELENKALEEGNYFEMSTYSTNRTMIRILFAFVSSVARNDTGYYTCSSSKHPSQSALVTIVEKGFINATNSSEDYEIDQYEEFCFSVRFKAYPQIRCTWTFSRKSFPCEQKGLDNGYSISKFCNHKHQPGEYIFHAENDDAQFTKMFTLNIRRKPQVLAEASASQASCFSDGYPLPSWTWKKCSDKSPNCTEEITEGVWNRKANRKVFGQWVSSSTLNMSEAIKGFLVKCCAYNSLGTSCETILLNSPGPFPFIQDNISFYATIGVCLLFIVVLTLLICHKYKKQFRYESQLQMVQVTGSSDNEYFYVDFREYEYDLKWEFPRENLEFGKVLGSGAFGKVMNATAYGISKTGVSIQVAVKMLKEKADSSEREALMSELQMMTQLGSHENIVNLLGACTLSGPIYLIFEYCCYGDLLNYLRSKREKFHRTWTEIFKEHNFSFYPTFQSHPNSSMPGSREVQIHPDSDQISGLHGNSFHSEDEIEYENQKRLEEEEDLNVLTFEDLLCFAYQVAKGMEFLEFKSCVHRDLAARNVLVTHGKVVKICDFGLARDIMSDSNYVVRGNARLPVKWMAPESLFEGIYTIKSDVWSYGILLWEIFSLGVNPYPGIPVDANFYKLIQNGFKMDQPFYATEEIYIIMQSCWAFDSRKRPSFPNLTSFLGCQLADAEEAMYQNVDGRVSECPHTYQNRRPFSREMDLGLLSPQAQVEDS
Source text: (§1) We assessed the selectivity of members of this scaffold using the KINOMEscan methodology across a near comprehensive panel of 442 kinases [[18,27]].

[2] = target: T2, panel of 442 kinases (Homo sapiens, UniProt Q15418)
T2 construct: purchased KINOMEscan
T2 sequence (Q15418 whole entry): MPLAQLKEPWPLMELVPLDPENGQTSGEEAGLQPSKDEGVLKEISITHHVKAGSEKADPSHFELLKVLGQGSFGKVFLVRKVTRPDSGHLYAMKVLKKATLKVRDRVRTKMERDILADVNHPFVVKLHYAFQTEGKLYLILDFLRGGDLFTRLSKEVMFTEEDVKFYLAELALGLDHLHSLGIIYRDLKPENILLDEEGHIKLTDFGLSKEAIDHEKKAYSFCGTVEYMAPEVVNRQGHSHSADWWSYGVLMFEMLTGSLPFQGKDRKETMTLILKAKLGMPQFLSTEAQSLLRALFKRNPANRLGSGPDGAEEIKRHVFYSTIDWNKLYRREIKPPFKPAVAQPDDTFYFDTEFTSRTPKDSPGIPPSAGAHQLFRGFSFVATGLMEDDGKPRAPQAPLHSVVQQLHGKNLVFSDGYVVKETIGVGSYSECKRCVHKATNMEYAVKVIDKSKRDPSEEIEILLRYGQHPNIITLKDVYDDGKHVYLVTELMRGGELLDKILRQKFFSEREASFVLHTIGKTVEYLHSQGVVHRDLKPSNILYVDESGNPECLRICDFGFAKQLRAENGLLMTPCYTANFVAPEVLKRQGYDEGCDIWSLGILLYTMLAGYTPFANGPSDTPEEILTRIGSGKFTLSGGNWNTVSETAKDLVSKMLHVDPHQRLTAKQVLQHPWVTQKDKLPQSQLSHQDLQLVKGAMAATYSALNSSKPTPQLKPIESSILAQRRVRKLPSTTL
Source text: as §1

[3] = target: T3, panel of 442 kinases (Homo sapiens, UniProt Q9Y6M4)
T3 construct: purchased KINOMEscan
T3 sequence (Q9Y6M4 whole entry): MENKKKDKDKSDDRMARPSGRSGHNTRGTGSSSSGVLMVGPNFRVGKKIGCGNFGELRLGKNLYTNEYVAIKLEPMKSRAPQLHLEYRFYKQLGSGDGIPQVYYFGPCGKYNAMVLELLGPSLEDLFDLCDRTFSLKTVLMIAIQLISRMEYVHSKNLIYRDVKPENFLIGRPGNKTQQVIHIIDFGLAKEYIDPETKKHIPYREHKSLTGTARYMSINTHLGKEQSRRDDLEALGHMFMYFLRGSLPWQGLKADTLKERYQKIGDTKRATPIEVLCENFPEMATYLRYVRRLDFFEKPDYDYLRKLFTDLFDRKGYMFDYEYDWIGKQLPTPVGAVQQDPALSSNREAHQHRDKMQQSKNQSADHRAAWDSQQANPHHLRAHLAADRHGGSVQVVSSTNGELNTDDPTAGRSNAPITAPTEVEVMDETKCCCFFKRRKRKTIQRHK
Source text: as §1

| Structure (SMILES) | KINOMEscan: FLT3(K663Q) [1] | KINOMEscan: RSK1(Kin.Dom.1-N-terminal) [2] | KINOMEscan: RSK1(Kin.Dom.2-C-terminal) [2] | KINOMEscan: CSNK1G3 [3] |
| --- | --- | --- | --- | --- |
| COc1cc(C(=O)N2CCC(N3CCN(C)CC3)CC2)ccc1Nc1ncc2c(n1)N(C)c1ccccc1C(=O)N2C [15 (LRRK2-IN-1)] | 97 | 73 | 10 | 93 |
| CCOc1cc(C(=O)N2CCC(N3CCN(C)CC3)CC2)ccc1Nc1ncc2c(n1)N(C1CCCC1)c1ccccc1C(=O)N2C [Compound 26] | 100 | 100 | 88 | 91 |
| COc1cc(C(=O)N2CCC(N3CCN(C)CC3)CC2)ccc1Nc1ncc2c(n1)N1CCc3cccc(c31)C(=O)N2C [Compound 24] | 100 | 71 | 22 |  |
| COc1cc(C(=O)N2CCC(N3CCN(C)CC3)CC2)ccc1Nc1ncc2c(n1)N(C1CCCC1)c1ccccc1C(=O)N2C [Compound 25, 11-cyclopentyl-2-((2-methoxy-4-(4-(4-methylpiperazin-1-yl)piperidine-1-carbonyl)phenyl)amino)-5-methyl-5H-benzo[e]pyrimido[5,4-b][1,4]diazepin-6(11H)-one] | 100 | 75 | 63 | 96 |

From publication PMC3914206
